One test concerns IL-6 mRNA. Kind of test: IL-6 mRNA in muscularis after IM (real time RT-PCR). The following applies: IM + CO, 3 and 6 hr time points. In kind it is in vivo, mouse. The method, then: Pro- and anti-inflammatory gene expression was determined by real time RT-PCR. The small intestinal muscularis externa was collected at 4 time points (3, 6, 12, and 24 hr) postoperatively and snap frozen in liquid nitrogen. Total RNA extraction was performed using the guanidium-thiocyanate phenol-chloroform extraction method as described in Eskandari et al. (Id.) RNA pellets were resuspended in RNA-secure resuspension solution (Ambion Inc., Austin, Tex.), followed by removal of potential contaminating DNA by treatment with DNase I (DNA-Free Kit, Ambion Inc., Austin, Tex.). Equal aliquots (5 μg) of total RNA from each sample were quantified by spectrophotometry (wavelength […]). Peak mRNA expression was quantified in duplicate by SYBR Green two-step, real-time RT-PCR. β-actin was used as the endogenous reference. […] Real-time PCR data were plotted as the ΔRn fluorescence signal versus the cycle number. […] Quantification of mRNA expression was normalized to β-actin and calculated relative to control using the comparative CT method.
To exclude PCR amplification of contaminating genomic DNA, RT-negative controls (samples containing RNA which was not reverse transcribed) were included in each PCR reaction. […] PCR amplification efficiency of each target cDNA was measured by determining the colinearity of serial dilutions. […]
(In general: Quantitative PCR measures a nucleic acid by following its amplification.)

A further test concerns IL-1β mRNA. Nature of the test: IL-1β mRNA expression in muscularis externae of intestinal grafts. It is filed as in vivo, rat. The method, then:
To investigate the sequential analysis of cytokine mRNA expression in the mucosa and muscularis, RNase protection assay was performed with the Riboquant™ kit (Pharmingen) according to the protocol of the manufacturer. […] Quantification of radioactivity of mRNA bands was performed with NIH Image, normalized to GAPDH, and expressed as a ratio of cytokine /GAPDH (n=3-4).
The effects of inhalation of CO on transplant-induced pro-inflammatory and anti-inflammatory gene expression was assessed in muscularis extracts by RT-PCR. […] Equal aliquots (5 μg) of total RNA from each sample were quantified by spectrophotometry (wavelength […]) and aliquoted at a concentration of 40 ng/μl. Peak mRNA expression was quantified in duplicate by SYBR Green two-step, real-time RT-PCR. […] Real-time PCR data were plotted as the ΔRn, fluorescence signal versus the cycle number. […] Quantification of mRNA expression was normalized to GAPDH and calculated relative to control using the comparative CT method (Schmittgen et al., J. Biochem. Biophys. Methods 46(1-2):69-8 (2000)). […]

The structures appear in SMILES notation.

On to `[C-]#[O+]` [CO, carbon monoxide], for which, in the test on IL-6 mRNA, the “manipulation-induced IL-6 gene expression” value was “no effect”. In addition, in the test with IL-1β mRNA (SITx + CO, Table 2), the “IL-1β mRNA” value is recorded as 6.6 + 0.1 % GAPDH. Also, the “reduction of mean relative IL-1β mRNA expression” value with IL-1β mRNA (SITx recipients treated with CO vs SITx, 4 hours after reperfusion, p=0.046) is 50%.
